Laboratory results taken from patent US20230047208A1, “RNA Splicing Modulation” (The General Hospital Corporation, priority 2020, published 2023).

How the values were obtained:
CPSF7 minigene, Exon X = experiment: CPSF7 minigene splicing assay, RT-PCR; assay type: cell-based; conditions: mutated CPSF7 minigene
Source text: FIGS. 3E-3G Upper row: The length of the exon triplets cloned into minigenes constructs are shown. The flanking sequences of the 5′ splice sites of Exon X are shown in LOGO plots. The height of each nucleotide was estimated using in silico saturated mutagenesis, with the corresponding closely matched CNN Motifs indicated below the plots. […] Middle row: Splicing changes for Exon X in both wildtype and mutated exon triplets, predicted by the CNN model (left) and measured by RT-PCR of the minigene (right). The RT-PCR experiments were performed in duplicate and independently repeated three times for each minigene to make the bar plots (two-tailed, unpaired Student's t test). Bottom row: Example of splicing changes induced by treatment with Compound (I) in the minigene splicing assays. The percentage for Exon X inclusion is indicated beneath each lane, from treated and untreated conditions in both wildtype and mutated minigenes. […] The statistical significance, as shown in FIGS. 3E-3G, was determined via two-tailed, unpaired Student's test: *p<0.05; **p<0.01; ***p<0.001. […]
Wild-type and mutant double-stranded DNA (dsDNA) fragments, selected based on low nucleotide length and exon-skipping probability, were ordered through GENEWIZ (FragmentGENE). […] Concentrations were determined using a nanodrop spectrometer.

[1] = Tolerability and weight assessment of TgFD9 mice; assay type: in vivo; conditions: oral gavage once daily for 7 days, 10, 30, 60 or 100 mg/kg
Experimental: FIGS. 7C-E show the relative expression of full-length (FL) and Δ20 ELP1 mRNA (left graphs), and ELP1 protein quantification (right graphs) in kidney (FIG. 7C), heart (FIG. 7D) and skin (FIG. 7E) after oral doses of Compound (I) ranging from 10 to 100 mg/kg in adult transgenic TgFD9 mouse (n=4-6 mice in each treatment group). Comparisons were done within the same group, against the vehicle-treated mice. […] The levels of compound were measured using mass spectrometry. In the figure, *p<0.05; **p<0.01; ***p<0.001.
Compound (I) was evaluated in vivo to determine whether splicing correction can lead to a concomitant increase in ELP1 protein. In brief, TgFD9 transgenic mice, which carry the human ELP1 gene with a Exon 20 splice mutation, were treated by oral gavage once daily for 7 days with Compound (I) as a suspension in 0.5% HPMC, 0.1% Tween 80 at a dose of 10, 30, 60 or 100 mg/kg. The mice used for this study were housed in an animal facility, provided with access to food and water ad libitum, and maintained on a 12-hour light/dark cycle. For routine genotyping, genomic DNA was prepared from tail biopsies and PCR was carried out to detect the TgFD9 transgene using the following primers—forward 5′-[…]-3′; reverse, 5′-[…]-3′. Mice were sacrificed 1 hour after the last dose.
The level of splicing correction correlated with Compound (I) tissue distribution (FIGS. 7F-7G).

Clc1nc(NCc2ccncc2)c2cc[nH]c2n1 [Compound (I), 2-chloro-N-(pyridin-4-ylmethyl)-7H-pyrrolo[2,3-d]pyrimidin-4-amine]
Exon X splicing response confirmed by RT-PCR (CPSF7 minigene, Exon X): inclusion | tolerability, weight loss, adverse effects [1]: well tolerated with no weight loss or adverse effects observed
